Target: T1, human IRAK-4 (Homo sapiens, UniProt Q9NWZ3)
T1 construct: purchased Carna Biosciences 09 145
T1 sequence (Q9NWZ3 1-460): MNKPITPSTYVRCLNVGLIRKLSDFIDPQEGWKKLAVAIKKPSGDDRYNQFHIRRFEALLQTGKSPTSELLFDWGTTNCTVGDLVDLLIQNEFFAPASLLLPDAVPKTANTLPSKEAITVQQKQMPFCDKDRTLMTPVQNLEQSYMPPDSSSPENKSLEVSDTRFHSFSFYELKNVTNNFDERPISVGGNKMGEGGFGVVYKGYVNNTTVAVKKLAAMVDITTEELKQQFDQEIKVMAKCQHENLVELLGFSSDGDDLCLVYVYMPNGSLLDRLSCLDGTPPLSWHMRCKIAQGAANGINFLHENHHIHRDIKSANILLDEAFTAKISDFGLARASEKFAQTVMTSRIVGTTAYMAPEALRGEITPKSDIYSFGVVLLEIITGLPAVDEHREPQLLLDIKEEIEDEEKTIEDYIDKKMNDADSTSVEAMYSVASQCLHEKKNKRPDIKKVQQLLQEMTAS
Assay: Phosphorylation IC50 determination for human IRAK-4 (ADP-Glo kinase assay)
Assay type: biochemical
Conditions: RIP140 substrate, Km ATP, read-out: IRAK4 IC50
Experimental: 3.1. Phosphorylation IC50 Determination for Human IRAK-4
The phosphorylation of the substrate RIP140 (SEQ IDi1) by IRAK4 at Km ATP was detected with the ADP-Glo Kinase Assay (Promega, Cat #V9103), a luminescent kinase assay which measures the ADP formed from a kinase reaction. (Zegzouti et al., 2009) In a second step the kinase reaction is terminated and all the remaining ATP was depleted. In a final step the ADP was converted into ATP and this newly synthesized ATP was measured by using a luciferase/luciferin reaction with a luminescent reader. The luminescent signal positively correlated with kinase activity, in particular kinase inhibition giving a decrease of the luminescent signal.
For the semi-automated assay, the positive control (100% inhibition) was prepared by diluting 10 mM staurosporine stock mixture (20 μL) in water (3.8 mL) and DMSO (180 μL), thus resulting in a […] staurosporine solution at 1% DMSO (final concentration after further dilution in the kinase reaction).
For the automated assay, no pre-dilution of the 10 mM staurosporine stock was made. 10 mM staurosporine was spotted directly in the assay plate using acoustic dispensing and complemented with DMSO to result in a similar final concentration as mentioned above.
For the semi-automated assay, the negative control (0% inhibition) was prepared by mixing water (3.8 mL) and DMSO (200 μL) resulting in a final concentration of 1% DMSO after further dilution in the kinase reaction. For the automated assay no pre-dilution of DMSO was done. 100% DMSO was spotted directly on the assay plate.
The assay buffer solution was prepared at a concentration corresponding to 5 fold the final (most diluted) assay concentration by mixing a solution of 125 mM TRIS pH 7.5+0.05% Triton X-100+2.5 mM EGTA (5.27 mL) with 1M MgCl2 (72 μL), 1M DTT (57.6 μL), and 200 mM MnCl2 (360 μL).
For example, for the semi-automated method, the enzyme-substrate mixture was prepared by mixing water (3999 μL), assay buffer solution (1380 μL), 1 mM RIP140 (138 μL—SEQ ID1), and 200 ng/mL IRAK 4 (3.45 μL Carna Biosciences, 09 145).
For semi-automated method, the ATP mixture was prepared at a concentration corresponding to 2.5 fold the final (most diluted) assay concentration of the semi-automated method and 1.5 fold the final (most diluted) assay concentration of the automated method. For example, for the semi-automated method, the ATP mixture was prepared by mixing water (4126 μL), assay buffer solution (1380 μL), and 10 mM ATP (13.80 μL).
The assay was performed either in a semi-automated or fully automated manner. The assay volume and the incubation time of the ADP detection were different accordingly the method used.
3.1.3.1. Semi-Automated Assay
The compounds were prepared as a serial dilution of 10 point dose responses with 1/5 dilution steps in 100% DMSO starting from 2 mM highest concentration, diluted 1/20 in water. 1 μL was transferred dry to the assay plates.
On each assay plate 32 wells of each control (positive & negative) were added, followed by 2 μL enzyme-substrate mixture.
The reaction was started by adding 2 μL diluted ATP (final concentration Km ATP) on the assay plates. Plates were centrifuged for a few seconds at 1000 rpm followed by an incubation at r.t. for 120 min.
The reactions were stopped and the unconsumed ATP was depleted by adding 5 μL ADP-glo Reagent (Promega, Cat #V9103) to the reaction. The plates were quickly centrifuged at 1000 rpm and incubated at r.t. for 40 min corresponding to full ATP depletion.
The ADP was converted back to ATP and luciferase and luciferin were introduced to detect ATP by adding 10 μL kinase detection reagent (Promega, Cat #V9103) to the reaction. The plates were centrifuged for a few seconds at 1000 rpm and incubated at r.t. for a further 30 min.
Luminescent read out was performed on an Envision luminescent reader (Perkin Elmer). […]

Structure (SMILES): COc1cn2nc(CC(F)C(C)(C)O)cc2cc1NC(=O)c1cccn(C2CC2)c1=O (single isomer, unassigned; enantiomer a) [Compound 25, 1-cyclopropyl-N-[2-(2-fluoro-3-hydroxy-3-methyl-butyl)-6-methoxy-pyrazolo[1,5-a]pyridin-5-yl]-2-oxo-pyridine-3-carboxamide Enantiomer A]
- IC50: 0.1 to 5 nM

Structure (SMILES): COc1cn2nc(CC(F)C(C)(C)O)cc2cc1NC(=O)c1cccn(C2CC2)c1=O (single isomer, unassigned; enantiomer b) [Compound 26, 1-cyclopropyl-N-[2-(2-fluoro-3-hydroxy-3-methyl-butyl)-6-methoxy-pyrazolo[1,5-a]pyridin-5-yl]-2-oxo-pyridine-3-carboxamide Enantiomer B]
- IC50: 10 to 50 nM

Structure (SMILES): COc1cn2nc(CCC(C)(C)O)cc2cc1NC(=O)c1cccn(C2CC2)c1=O [Compound 1, 1-cyclopropyl-N-[2-(3-hydroxy-3-methylbutyl)-6-methoxypyrazolo[1,5-a]pyridin-5-yl]-2-oxopyridine-3-carboxamide]
- IC50: 0.1 to 5 nM

Structure (SMILES): COc1cn2nc(CCC(C)(C)O)cc2cc1NC(=O)c1cccn(C)c1=O [Compound 2, N-[2-(3-hydroxy-3-methylbutyl)-6-methoxypyrazolo[1,5-a]pyridin-5-yl]-1-methyl-2-oxopyridine-3-carboxamide]
- IC50: 0.1 to 5 nM

Structure (SMILES): COc1cn2nc(CCC(C)(C)O)cc2cc1NC(=O)c1cccc(C(F)(F)F)n1 [Compound 3, N-[2-(3-hydroxy-3-methylbutyl)-6-methoxypyrazolo[1,5-a]pyridin-5-yl]-6-(trifluoromethyl)pyridine-2-carboxamide]
- IC50: 0.1 to 5 nM

Structure (SMILES): CC(C)(O)CCc1cc2cc(NC(=O)c3cccc(C(F)(F)F)n3)c(C(N)=O)cn2n1 [Compound 4, 2-(3-hydroxy-3-methylbutyl)-5-[[6-(trifluoromethyl)pyridine-2-carbonyl]amino]pyrazolo[1,5-a]pyridine-6-carboxamide]
- IC50: 0.1 to 5 nM

Structure (SMILES): CNC(=O)c1cn2nc(CCC(C)(C)O)cc2cc1NC(=O)c1cccc(C(F)(F)F)n1 [Compound 5, 2-(3-hydroxy-3-methylbutyl)-N-methyl-5-[[6-(trifluoromethyl)pyridine-2-carbonyl]amino]pyrazolo[1,5-a]pyridine-6-carboxamide]
- IC50: 0.1 to 5 nM

Structure (SMILES): COc1cn2nc(CCC(C)(C)O)cc2cc1NC(=O)c1cccn(C(F)F)c1=O [Compound 7, 1-(difluoromethyl)-N-[2-(3-hydroxy-3-methyl-butyl)-6-methoxy-pyrazolo[1,5-a]pyridin-5-yl]-2-oxo-pyridine-3-carboxamide]
- IC50: 5 to 10 nM

Structure (SMILES): CNC(=O)c1cn2nc(C3CCCS(=O)(=O)C3)cc2cc1NC(=O)c1cccc(C(F)(F)F)n1 (stereo not shown) [Compound 8, 2-(1,1-dioxothian-3-yl)-N-methyl-5-[[6-(trifluoromethyl)pyridine-2-carbonyl]amino]pyrazolo[1,5-a]pyridine-6-carboxamide]
- IC50: 0.1 to 5 nM

Structure (SMILES): CCOc1cn2nc(CCC(C)(C)O)cc2cc1NC(=O)c1cccn(C(F)F)c1=O [Compound 9, 1-(difluoromethyl)-N-[6-ethoxy-2-(3-hydroxy-3-methyl-butyl)pyrazolo[1,5-a]pyridin-5-yl]-2-oxo-pyridine-3-carboxamide]
- IC50: 5 to 10 nM

Structure (SMILES): CNC(=O)c1cn2nc(C3CCN(C)CC3)cc2cc1NC(=O)c1cccc(C(F)(F)F)n1 [Compound 12, N-methyl-2-(1-methyl-4-piperidyl)-5-[[6-(trifluoromethyl)pyridine-2-carbonyl]amino]pyrazolo[1,5-a]pyridine-6-carboxamide]
- IC50: 0.1 to 5 nM

Structure (SMILES): COc1c(NC(=O)c2cccn(C3CC3)c2=O)cc2cc(CCC(C)(C)O)nn2c1C [Compound 13, 1-cyclopropyl-N-[2-(3-hydroxy-3-methyl-butyl)-6-methoxy-7-methyl-pyrazolo[1,5-a]pyridin-5-yl]-2-oxo-pyridine-3-carboxamide]
- IC50: 10 to 50 nM

Structure (SMILES): CNC(=O)c1cn2nc(C3CCOCC3)cc2cc1NC(=O)c1cccc(C(F)F)n1 [Compound 15, 5-[[6-(difluoromethyl)pyridine-2-carbonyl]amino]-N-methyl-2-tetrahydropyran-4-yl-pyrazolo[1,5-a]pyridine-6-carboxamide]
- IC50: 0.1 to 5 nM

Structure (SMILES): NC(=O)c1cn2nc(C3CCOCC3)cc2cc1NC(=O)c1cccc(C(F)F)n1 [Compound 16, 5-[[6-(difluoromethyl)pyridine-2-carbonyl]amino]-2-tetrahydropyran-4-yl-pyrazolo[1,5-a]pyridine-6-carboxamide]
- IC50: 0.1 to 5 nM

Structure (SMILES): CCOc1cn2nc(CCC(C)(C)O)cc2cc1NC(=O)c1cccn(C2CC2)c1=O [Compound 17, 1-cyclopropyl-N-[6-ethoxy-2-(3-hydroxy-3-methyl-butyl)pyrazolo[1,5-a]pyridin-5-yl]-2-oxo-pyridine-3-carboxamide]
- IC50: 0.1 to 5 nM

Structure (SMILES): CCOc1cn2nc(CCC(C)(C)O)cc2cc1NC(=O)c1cccn(C)c1=O [Compound 18, N-[6-ethoxy-2-(3-hydroxy-3-methyl-butyl)pyrazolo[1,5-a]pyridin-5-yl]-1-methyl-2-oxo-pyridine-3-carboxamide]
- IC50: 0.1 to 5 nM

Structure (SMILES): CNC(=O)c1cn2nc(CCC(C)(C)O)cc2cc1NC(=O)c1cccc(C(F)F)n1 [Compound 19, 5-[[6-(difluoromethyl)pyridine-2-carbonyl]amino]-2-(3-hydroxy-3-methyl-butyl)-N-methyl-pyrazolo[1,5-a]pyridine-6-carboxamide]
- IC50: 0.1 to 5 nM

Structure (SMILES): CC(C)(O)CCc1cc2cc(NC(=O)c3cccc(C(F)F)n3)c(C(N)=O)cn2n1 [Compound 20, 5-[[6-(difluoromethyl)pyridine-2-carbonyl]amino]-2-(3-hydroxy-3-methyl-butyl)pyrazolo[1,5-a]pyridine-6-carboxamide]
- IC50: 0.1 to 5 nM

Structure (SMILES): COc1cn2nc(CCC(C)(C)O)cc2cc1NC(=O)c1cccn(C2CCC2)c1=O [Compound 21, 1-cyclobutyl-N-[2-(3-hydroxy-3-methyl-butyl)-6-methoxy-pyrazolo[1,5-a]pyridin-5-yl]-2-oxo-pyridine-3-carboxamide]
- IC50: 0.1 to 5 nM

Structure (SMILES): COc1cn2nc(CC(F)C(C)(C)O)cc2cc1NC(=O)c1cccn(C2CC2)c1=O (stereo not shown) [Compound 22, 1-cyclopropyl-N-[2-(2-fluoro-3-hydroxy-3-methyl-butyl)-6-methoxy-pyrazolo[1,5-a]pyridin-5-yl]-2-oxo-pyridine-3-carboxamide]
- IC50: 0.1 to 5 nM

Structure (SMILES): [2H]C([2H])([2H])C(O)(CCc1cc2cc(NC(=O)c3cccn(C4CC4)c3=O)c(OC)cn2n1)C([2H])([2H])[2H] [Compound 23, 1-cyclopropyl-N-[6-methoxy-2-[4,4,4-trideuterio-3-hydroxy-3-(trideuteriomethyl)butyl]pyrazolo[1,5-a]pyridin-5-yl]-2-oxo-pyridine-3-carboxamide]
- IC50: 0.1 to 5 nM

Structure (SMILES): [2H]C([2H])([2H])Oc1cn2nc(CCC(C)(C)O)cc2cc1NC(=O)c1cccn(C2CC2)c1=O [Compound 24, 1-cyclopropyl-N-[2-(3-hydroxy-3-methylbutyl)-6-(trideuteriomethoxy)pyrazolo[1,5-a]pyridin-5-yl]-2-oxopyridine-3-carboxamide]
- IC50: 0.1 to 5 nM
